# According to patent US12331312B2, “Deterministic culturing of single cells” (Purdue Research Foundation, priority 2020, dated 2025):
# Test system: MCF7 tumors
# Experiment: Paclitaxel treatment of single-cell-derived MCF7 tumors on collagen islands; apoptosis counted by Hoechst nuclear morphology
# Assay type: cell-based
# Procedure: Hoechst staining was used to visualize cells in the tumor using fluorescence microscopy (FIG. 4). Specifically, cells were washed in PBS and fixed in 4% paraformaldehyde before staining with 1:1000 PBS diluted solution of 20 mM Hoechst 33342 (Thermo Fischer Scientific, Waltham, MA) for 10 minutes. After washing once with PBS, tumors were imaged with a ZEISS LSM 800 confocal microscope with an excitation laser of 401 nm wavelength and with 10× magnification lens (EC Plan-Neofluar® 10×/0.30 M27). Bright-field and fluorescence images were also obtained using NIKON ECLIPSE® 80i upright fluorescence microscope, which were used to analyze the morphology of the tumors with ImageJ. […]
# For each tumor, dead and live nuclei at every alternate plane of the z-stack were manually counted using Fiji cell counting software. […]
# Since each island comprises a relatively small amount of collagen (e.g. as opposed to an entire well of a 96-well plate), excess dye that inadvertently diffuses into the collagen can be washed easily to reduce any background fluorescence signal. Live and dead cells (the latter indicated by smaller or fragmented nuclei with intense staining due to DNA condensation) from individual planes of z-stack confocal images of each tumor were manually counted according to a procedure described by Crowley et al. (see, e.g., Crowley et al., Cold Spring Harb. Protoc. pdb.prot087205 2016). […]
smiles,measurement,setting,value
CC(=O)O[C@H]1C(=O)[C@@]2(C)[C@H]([C@H](OC(=O)c3ccccc3)[C@]3(O)C[C@H](OC(=O)[C@H](O)[C@@H](NC(=O)c4ccccc4)c4ccccc4)C(C)=C1C3(C)C)[C@]1(OC(C)=O)CO[C@@H]1C[C@@H]2O [Paclitaxel],average cell death (percentage of apoptotic cells),"13-day old MCF7 tumors, Paclitaxel 5 nM, 20 nM and 100 nM for 24 hours, Hoechst 33342 nuclear morphology",increased with drug concentration
same,variation in the response of individual tumors,"each drug concentration (5, 20, 100 nM), 24 hours",significant variation in the response of individual tumors for each drug concentration
